Earlier results as cited in PMC10010621, “ATP binding by an F1Fo ATP synthase ε subunit is pH dependent, suggesting a diversity of ε subunit functional regulation in bacteria” (Frontiers in Molecular Biosciences, 2023).

Experiments:
[1] = design: method as in Tanokura et al., 1976; conditions: solution phase; ref Tanokura et al., 1976
[2] = test system: C. thermarum ε subunit NTH mutant (εD89A, εR92A); design: method as in Ferguson et al., 2016; conditions: F1 domain, ref Ferguson et al., 2016
[3] = test system: B. subtilis ε subunit εE102A; design: method as in Krah et al., 2021; conditions: εE102A versus wild-type; ref Krah et al., 2021
[4] = test system: B. subtilis ε subunit εE102R; design: method as in Krah et al., 2021; conditions: εE102R versus wild-type; ref Krah et al., 2021
[5] = target: εR103A/εR115A double-mutant ε subunit of Bacillus PS3; design: method as in Kato-Yamada, 2016; conditions: ref Kato-Yamada, 2016, read-out: ATP binding affinity
[6] = target: Bacillus subtilis ε subunit; design: method as in Kato-Yamada, 2005; Krah et al., 2021; conditions: isolated ε subunit; ref Kato-Yamada, 2005; Krah et al., 2021; read-out: Kd (ATP binding affinity)
[7] = target: Bacillus PS3 ε subunit; conditions: isolated ε subunit; ref Kato et al., 2007; read-out: Kd (ATP binding affinity)
[8] = test system: ε subunit of M. tuberculosis; design: method as in Biukovic et al., 2013; conditions: at the conditions measured; ref Biukovic et al., 2013
[9] = test system: Escherichia coli ε subunit; design: method as in Yagi et al., 2007; conditions: isolated ε subunit; ref Yagi et al., 2007; read-out: Kd (ATP binding affinity)

| Compound | pKa of the imidazole group [1] | ATP binding [2] | increase in ATP binding affinity [3] [fold] | increase in ATP binding affinity [4] [fold] | Kd [5] [µM] | Kd [6] [µM] | Kd [7] [µM] | ATP binding [8] | Kd [9] [µM] |
| --- | --- | --- | --- | --- | --- | --- | --- | --- | --- |
| N[C@@H](Cc1c[nH]cn1)C(=O)O [histidine] | 6.0–6.5 |  |  |  |  |  |  |  |  |
| Nc1ncnc2c1ncn2[C@@H]1O[C@H](COP(=O)(O)OP(=O)(O)OP(=O)(O)O)[C@@H](O)[C@H]1O [ATP] |  | lack of ability to bind ATP | ~10 | ~54 | 0.052 | 2100 | 4.3 | did not bind to ATP | 22000 |
